According to patent US20220280513A1, “ENHANCING THE ANTIVIRAL EFFICACY OF RNA VIRUS INHIBITION BY COMBINATION WITH MODULATORS OF PYRIMIDINE METABOLISM” (The Board of Trustees of the Leland Stanford Junior …, priority 2019, published 2022):

How the values were obtained:
[1] = tested on: DENV-2 virus; test: DENV antiviral assay, DENV-Luc replication in A549 cells (FIGS. 8 and 9); assay type: cell-based, dengue serotype 2 (DENV-2) strain 16681; conditions: single agents, 20 μM uridine
Protocol: (§1) DENV-Luc reporter virus generation: The design of the pDENV-Luc infectious clone derived from dengue serotype 2 (DENV-2) strain 16681 was described in detail by Marceau et al (Marceau et al., 2016). The plasmid was linearized with Xbal and in vitro transcribed into the genomic RNA of DENV-Luc virus using the T7 Megascript Kit (Ambion) in the presence of m7G(5′)ppp(5′)G RNA Cap Structure Analog (NEB). 5 μg DENV-Luc RNA was electroporated into 2×10^6 Vero cells. The transfected cells were resuspended with Dulbecco's modified Eagle's medium (DMEM; Invitrogen) with 10% FBS and 100 U/ml penicillin-streptomycin and transferred into a T-175 flask incubated at 37° C. with 5% CO2. Supernatants were collected and replenished with fresh medium every 24 h from day 17 to 24 post-transfection, pooled together, clarified by centrifugation and stored in aliquots at −80° C. The amount of infectious DENV-Luc virus in the stock was titrated using the TCID50 assay and calculated by the Spearman & Kärber algorithm as described previously (Hierholzer and Killington, 1996).
DENV antiviral assays (For FIGS. 8 and 9): A549 cells were plated overnight at 5,000 cells/well in 96-well plates in complete DMEM and incubated for 24 h at 37° C. Cells were then treated with pyrimidine de novo synthesis inhibitors, and/or salvage inhibitors, and/or R1479 in DMEM supplemented with 20 μM uridine. Four hours after drug addition, cells were infected with DENV-2 virus at a MOI=0.1. After 72 h, DENV-Luc replication was monitored by the production of Renilla luciferase, which was measured using the Renilla-Glo Luciferase Assay System (Promega) according to the specifications of the manufacturer. For the accompanying cell viability assay, A549 cells were seeded at 5,000 cells/well in 96-well plates in complete DMEM and incubated for 24 h at 37° C. Cell were then treated with pyrimidine de novo synthesis inhibitors, and/or salvage inhibitors, and/or R1479 in DMEM supplemented with 20 μM uridine. Following 48 h treatment, cell viability was monitored by ATP levels, which was measured using the CellTiter-Glo Luciferase Assay System (Promega) according to the specifications of the manufacturer.

[2] = tested on: DENV-2 virus; test: Pilot antiviral assay, DENV-Luc replication in A549 cells (FIG. 2); assay type: cell-based, dengue serotype 2 (DENV-2) strain 16681; conditions: alone, 20 μM exogenous uridine
Protocol: We therefore focused our efforts on evaluating CPU in combination with GSK983. Using an infectious clone of dengue serotype 2 (DENV-2) strain 16681 engineered to express a luciferase reporter, the efficacy and cytotoxicity of combinations of GSK983 and CPU were assessed in infected or uninfected cultures of the A549 lung carcinoma cell line (FIG. 2). […] However, a combination of 0.2 μM GSK and 250 μM CPU inhibited ca. 50% of virus replication.
as §1
Pilot Antiviral Assays (for FIG. 2): A549 cells were plated overnight at 20,000 cells/well in 24-well plates in complete DMEM and incubated for 24 h at 37° C. Cell were then treated with pyrimidine de novo synthesis and/or salvage inhibitors in DMEM supplemented with 20 μM uridine. Four hours after drug addition, cells were infected with DENV-2 virus at a MOI=0.01. After 48 h, DENV-Luc replication was monitored by the production of Renilla luciferase, which was measured using the Renilla-Glo Luciferase Assay System (Promega) according to the specifications of the manufacturer. For the accompanying cell viability assay, A549 cells were seeded into 24-well plates at a density of 20,000 cells/well incubated for 24 h at 37° C. Cell were then treated with pyrimidine de novo synthesis and/or salvage inhibitors in DMEM supplemented with 20 μM uridine. Following 48h treatment, cells were harvested, and the density of viable cells was determined by flow cytometry (FSC/SSC) using a BD Accuri C6 Flow Cytometer.

[3] = tested on: a variety of unrelated viruses; conditions: Harvey et al. (2009); read-out: EC50, replication of a variety of unrelated viruses in vitro; cited from earlier work
[4] = tested on: intracellular uridine and cytidine nucleotide levels; test: LC-MS/MS analysis of intracellular nucleotides in A549 cells; assay type: cell-based; conditions: 250 μM with 1 μM GSK983, 5 μM uridine, 6 h
Protocol: FIG. 7. LC-MS analysis of intracellular nucleotides. (A) LC-MS analysis of intracellular uridine and cytidine nucleotide levels after 6 h treatments. In all assays, the culture medium was supplemented with 5 μM uridine and 1 μM GSK983. Error bars represent ±S.D. of two replicates. (B) LC-MS detection of mono-, di- and tri-phosphates of CPU and 5-F-CPU in cells. LC-MS/MS was performed on an Agilent 1290 infinity II LC system tandem with 6370 triple quad mass spectrometer using ion pairing chromatography. LC separation was performed at 40° C. with a solvent flow rate of 0.25 mL/min on a Zorbax RRHD Extended-C18 column (2.1×150 mm, 1.8 μM). Buffer A contained 97% H2O, 3% MeOH, 5 mM tributylamine, 5.5 mM Acetic acid and 1 μM medronic acid with pH=5.0; Buffer B contains ca. 100% MeOH, 5 mM tributylamine, 5.5 mM Acetic acid and 5 μM medronic acid with pH=7.0 The initial mobile phase composition was 100% solvent A, and a constant or linear gradient was applied after sample injection with eluent B varying as follows: 0% at 2.5 min, 20% at 7.5 min, 45% at 14 min, 99% at 20 to 23 min, and 0% from 23.1 to 27.1 min. […] Samples were measured in the negative ESI mode with capillary voltage at −3.5 kV. […]
With optimized sampling and detection method in hand, pyrimidine nucleotide levels were measured in cells cultured with either 250 μM CPU, 5-F-CPU or 5′-F-CPU in combination with 1 μM GSK983 (FIG. 7A). […]

[5] = molecular target: T1, recombinant human UCK2 (Homo sapiens, UniProt Q9BZX2); test: In vitro enzyme activity assay with recombinant human UCK2 (PK/LDH-coupled, UV 340 nm); assay type: biochemical
T1 construct: 6xHis (C); made in house; host or cells: E. coli BL21(DE3)
T1 sequence (Q9BZX2 1-261): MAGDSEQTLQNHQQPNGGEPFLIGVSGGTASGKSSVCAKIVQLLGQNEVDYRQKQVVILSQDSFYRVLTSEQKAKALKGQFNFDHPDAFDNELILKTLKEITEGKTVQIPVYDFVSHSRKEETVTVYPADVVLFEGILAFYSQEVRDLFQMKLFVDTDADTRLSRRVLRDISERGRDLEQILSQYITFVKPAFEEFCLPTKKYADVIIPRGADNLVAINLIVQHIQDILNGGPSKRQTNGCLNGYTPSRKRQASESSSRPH
Excerpt: In order to guide our SAR studies, we developed an enzymatic assay to evaluate the inhibitory effect of each CPU analog against recombinant human UCK2, which was expressed and purified in E. coli. A continuous assay system was optimized by coupling UCK2 activity to the pyruvate kinase (PK) reaction, which in turn was coupled to lactate dehydrogenase (LDH). Overall reaction progress was continuously monitored by detecting the UV absorption change at 340 nm, which was correlated with the ATP consumption by UCK2. The effect of 250 μM of each CPU analog on UCK2 activity was evaluated in the presence of 50 μM uridine. […] We then individually measured the steady state kinetic parameters of UCK2 using uridine, CPU and 5-F-CPU as substrates. Their KM values were 86, 25, and 41 μM, and their kcat/KM values were 2.6×10^5, 1.5×10^5, and 7.3×10^4 s^−1 M^−1 (FIG. 5B).
Cloning, expression and purification of recombinant human UCK2 and CMPK1: Uridine cytidine kinase 2 (UCK2) was cloned into the pET-21a(+) vector using Ndel and Notl as restriction sites. […] The resulting plasmid was transformed into E. coli BL21(DE3) cells by electroporation, recovered in SOC at 37° C. for 1 h and plated onto LB agar plates with kanamycin overnight at 37° C. A single, isolated colony was inoculated into 30 mL LB supplemented with 50 μg/mL kanamycin and grown at 37° C. with shaking for 15 h. The next day, these cells were used to inoculate 1 L autoclaved LB with 50 μg/mL kanamycin. The flask was shaken at 37° C. When an optical density (OD600) of 0.7 was reached, protein expression was induced with 0.5 mM isopropyl β-D-1-thiogalactopyranoside (IPTG). The temperature was changed to 18° C. and flasks were shaken for an additional 15 h. The cell pellets were collected by spinning the media at 5000 rpm for 10 min. The pellets obtained were frozen by liquid nitrogen and stored in −80° C. for protein purification. Cell pellets were thawed and resuspended in lysis buffer containing Tris (40 mM, pH 7.5), NaCl (10 mM), imidazole (10 mM), DTT (1 mM). Cells were lysed by sonication and centrifuged at 25,000 g for 1 h. The supernatant was incubated with a slurry of Ni-NTA resin for 1 h at 4° C. and loaded onto a column. The nickel column wash buffer was Tris (40 mM, pH 7.5), NaCl (10 mM), DTT (1 mM) and each wash step contained increasing concentrations of imidazole (10, 50, or 250 mM). After SDS-PAGE confirmation of the protein fractions, protein was further purified using fast protein liquid chromatography (FPLC) using buffer A (50 mM Tris-HCl pH 8, 1 mM dithiothreitol (DTT), 10% glycerol) and elution buffer B (50 mM Tris-HCl pH 8, 1mM dithiothreitol (DTT), 10% glycerol with 500 mM NaCl) with changing gradient over a 20 minute from 2% to 100% Buffer B. FPLC eluents containing the protein was concentrated using Am icon centrifugal filter with 3K cut-off and the enzyme was stored in storage buffer (50 mM Tris-HCl pH 7.5, 10% glycerol). Human cytidine monophosphate kinase 1 (CMPK1) was purified as previously described (Deans et al., 2016).
In vitro enzyme activity assays with recombinant human UCK2: To continuously monitor reaction progress spectrophotometrically, ATP hydrolysis was coupled to NADH oxidation via pyruvate kinase (PK) and lactate dehydrogenase (LDH). Reactions were conducted at room temperature in 100 μL in 96-well plates (Greiner Bio-One, UV-Star, Half Area). Mixtures contained 20 mM HEPES (pH 7.2), 100 mM KCl, 2 mM MgCl2, 300 μM ATP, 0-500 μM uridine, 0-500 μM CPU analogs, 10 nM UCK2, 1 mM phosphoenolpyruvate, 500 μM NADH and 20 units/mL of PK and LDH. Progress was monitored in the linear region using a Biotek Synergy HT and kinetic and inhibition constants were determined using GraphPad Prism 7 (GraphPad Software).

SMILES | antiviral activity as single agent [1] | inhibition of replication of DENV-2 virus, single agent [2] | EC50 [3] [nM] | depletion of intracellular uridine and cytidine nucleotide levels [4] | UCK2 substrate or not (ATP consumption) ([5]; 250 μM analog in the presence of 50 μM uridine) | Ki ([5]; competitive inhibitors of UCK2, Lineweaver-Burk analysis) [µM]
O=C(N[C@@H]1CCCc2c1[nH]c1ccc(Cl)cc21)c1ccccn1 [GSK983] | neither GSK983 nor CPU were effective | neither GSK nor CPU alone inhibited replication | 5 to 20 | – | – | –
O=c1ccn([C@@H]2C=C(CF)[C@@H](O)[C@H]2O)c(=O)[nH]1 [5′-F-CPU, 1-((1R,4R,5S)-3-(fluoromethyl)-4,5-dihydroxycyclopent-2-en-1-yl)pyrimidine-2,4(1H,3H)-dione] | – | – | – | did not deplete | inhibitors but not substrates | 170
